Results: ChEMBL document CHEMBL1201862, “PubChem BioAssay data set” (2004)
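Cultured in 96-well plates, cells were exposed to test compound for 48 hours across five concentrations. At the GI50, growth is halved.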 Active and inactive are the calls of the source. Rule as the data show it: active = GI50 up to about 1.1 µM and inactive = higher.

Assays:
Test in all cases: DTP human tumour cell line panel, 48 h
[1] = test system: SNB-75
[2] = test system: SNB-19
[3] = test system: SF-539
[4] = test system: OVCAR-8
[5] = test system: DMS-273
[6] = test system: HOP-92
[7] = test system: EKVX
[8] = test system: DMS-114
[9] = test system: U-251
[10] = test system: SK-MEL-28
[11] = test system: OVCAR-3
[12] = test system: HCT-15
[13] = test system: NCI-H522
[14] = test system: M19-MEL
[15] = test system: NCI-H23

SMILES	GI50 [1]	GI50 [2]	GI50 [3]	GI50 [4]	GI50 [5]	GI50 [6]	GI50 [7]	GI50 [8]	GI50 [9]	GI50 [10]	GI50 [11]	GI50 [12] [µM]	GI50 [13]	GI50 [14]	GI50 [15]
CCCC(=O)c1ccc2c(ccc(=O)n2C)c1	27.2 µM (inactive)	> 100 µM (inactive)	> 100 µM (inactive)	> 100 µM (inactive)	66.2 µM (inactive)	46.2 µM (inactive)	42.2 µM (inactive)	31.6 µM (inactive)	> 100 µM (inactive)	> 100 µM (inactive)	> 100 µM (inactive)	> 100	31.9 µM (inactive)	> 100 µM (inactive)	> 100 µM (inactive)
COC(=O)N/N=c1\cc(C(=O)Nc2ccc(C)c(C)c2)oc2cc(O)ccc12	> 100 µM (inactive)	> 100 µM (inactive)	> 100 µM (inactive)	> 100 µM (inactive)	> 100 µM (inactive)	> 100 µM (inactive)	> 100 µM (inactive)	> 100 µM (inactive)	> 100 µM (inactive)	> 100 µM (inactive)	> 100 µM (inactive)	> 100	> 100 µM (inactive)	> 100 µM (inactive)	> 100 µM (inactive)
N/C(=N\O)N/N=C/c1cccs1	20 µM (inactive)	> 100 µM (inactive)	> 100 µM (inactive)	71.9 µM (inactive)	> 100 µM (inactive)	> 100 µM (inactive)	23.7 µM (inactive)	54.8 µM (inactive)	> 100 µM (inactive)	> 100 µM (inactive)	34.9 µM (inactive)	79.1	25.1 µM (inactive)	> 100 µM (inactive)	> 100 µM (inactive)
O=C(N/C(=C\c1c(O)ccc2ccccc12)c1nc2ccccc2[nH]1)c1ccccc1	18.8 µM (inactive)	53.8 µM (inactive)	29.1 µM (inactive)	54.8 µM (inactive)	> 100 µM (inactive)	> 100 µM (inactive)	> 100 µM (inactive)	> 100 µM (inactive)	79.3 µM (inactive)	> 100 µM (inactive)	> 100 µM (inactive)	> 100	> 100 µM (inactive)	> 100 µM (inactive)	87.1 µM (inactive)
C/C(CC(=O)Nc1cccc(Cl)c1C)=N\N=C(N)N	> 100 µM (inactive)	> 100 µM (inactive)	> 100 µM (inactive)	> 100 µM (inactive)	97.1 µM (inactive)	> 100 µM (inactive)	> 100 µM (inactive)	> 100 µM (inactive)	> 100 µM (inactive)	> 100 µM (inactive)	> 100 µM (inactive)	> 100	> 100 µM (inactive)	> 100 µM (inactive)	> 100 µM (inactive)
COc1cc(Cn2c3ccccc3c3cc(C)c4c(c32)C=CC(C)(CCC=C(C)C)O4)cc2c1[nH]c1ccccc12 (stereo not given) [CHRESTFOLINE C]	> 100 µM (inactive)	> 100 µM (inactive)	> 100 µM (inactive)	> 100 µM (inactive)	> 100 µM (inactive)	> 100 µM (inactive)	> 100 µM (inactive)	> 100 µM (inactive)	> 100 µM (inactive)	> 100 µM (inactive)	> 100 µM (inactive)	> 100	> 100 µM (inactive)	> 100 µM (inactive)	> 100 µM (inactive)
